Source: patent US6203824A (priority 1992, dated 2001)
Where “and” joins values, the source holds several entries; their conditions need not be identical. Equal values may be shown once. Read-outs that look alike come from different tables or passages of the source.

Legend:
Sitophilus granarius = settings: in vivo; cited from earlier work
Tenebroides mauritanicus = settings: in vivo; cited from earlier work
Tribolium confusum = settings: in vivo; cited from earlier work
[1] = test system: Oryzsephilus surinamensis; settings: in vivo; cited from earlier work
Rhyzopertha dominica = settings: in vivo; cited from earlier work
Sitophilus oryzae = settings: in vivo; cited from earlier work
Tribolium castaneum = settings: in vivo; cited from earlier work
Trogoderma granarium = settings: in vivo; cited from earlier work
[2] = 25° C.; cited from earlier work
[3] = test system: grains of Australian standard white wheat and malting barley; settings: in vivo
[4] = type: physicochemical; settings: empty vial, 15 min
mould = settings: in vivo
S. oryzae [5] = test system: S. oryzae; design: species or system Sitophilus oryzae; settings: in vivo
L. destructor = settings: in vivo
[6] = test system: Liposcelis bostrychophilus; settings: in vivo
B. tyroni [7] = settings: queensland fruit fly, in vivo, inhaled
R. dominica = settings: in vivo
S. oryzae [8] = settings: in vivo
[9] = moist soil
Mice = settings: cited from earlier work
Rabbits = settings: rabbit, in vivo; cited from earlier work
Cold blooded animals = settings: in vivo; cited from earlier work
B. tyroni [10] = experiment: whole plant or invertebrate; settings: Bactrocera, inhaled or nasal, read-out: Corrected mortality
[11] = test system: Coptotermes acinaciformis; experiment: whole plant or invertebrate; settings: inhaled or nasal, 24 h, read-out: Corrected mortality

O=S(=O)(F)F [Sulphuryl fluoride, sulphuryl fluoride]
LC99 (concentration x time product) (Sitophilus granarius): 17.5 | LC99 (concentration x time product) (Tenebroides mauritanicus): 81.5 | LC99 (concentration x time product) (Tribolium confusum): 55.0

ClCCCl [Ethylene dichloride, ethylene dichloride]
LC95 (concentration x time product) [1]: 462.0 | LC95 (concentration x time product) (Rhyzopertha dominica): 636.0 | LC99 (concentration x time product) (Sitophilus granarius): 230.0 | LC95 (concentration x time product) (Sitophilus oryzae): 738.0 | LC99 (concentration x time product) (Tenebroides mauritanicus): 1728.0 | LC99 (concentration x time product) (Tribolium confusum): 365.0 | LC90 (concentration x time product) (Tribolium castaneum): 462.0 | LC95 (concentration x time product) (Trogoderma granarium): 2080.5

BrCCBr [Ethylene dibromide, ethylene dibromide]
LC95 (concentration x time product) [1]: 19.2 | LC95 (concentration x time product) (Rhyzopertha dominica): 37.2 | LC99 (concentration x time product) (Sitophilus granarius): 34.5 | LC95 (concentration x time product) (Sitophilus oryzae): 60.0 | LC99 (concentration x time product) (Tenebroides mauritanicus): 125.00 | LC99 (concentration x time product) (Tribolium confusum): 31.0 | LD95 (concentration x time product) (Tribolium castaneum): 22.0 | LC95 (concentration x time product) (Trogoderma granarium): 80.0

S=C=S [Carbon disulphide, carbon disulphide]
LC95 (concentration x time product) [1]: 408.0 | LC95 (concentration x time product) (Rhyzopertha dominica): 294.0 | LC99 (concentration x time product) (Sitophilus granarius): 325.0 | LC95 (concentration x time product) (Sitophilus oryzae): 300.0 | LC99 (concentration x time product) (Tenebroides mauritanicus): 828.00 | LC99 (concentration x time product) (Tribolium confusum): 560.00 | LC95 (concentration x time product) (Trogoderma granarium): 696.0 | solubility in water [2]: 2.2 grams per litre

CBr [Methyl bromide, methyl bromide]
LC95 (concentration x time product) [1]: 40.8 | LC95 (concentration x time product) (Rhyzopertha dominica): 33.0 | LC99 (concentration x time product) (Sitophilus granarius): 28.0 | LD99 (concentration x time product) (Sitophilus oryzae): 30.0 | LC99 (concentration x time product) (Tenebroides mauritanicus): 115.0 | LC99 (concentration x time product) (Tribolium confusum): 64.0 | LD95 (concentration x time product) (Tribolium castaneum): 62.0 | LC95 (concentration x time product) (Trogoderma granarium): 136.0 | solubility in water [2]: 13.4 grams per litre

ClC(Cl)(Cl)Cl [Carbon tetrachloride, carbon tetrachloride]
LC99 (concentration x time product) (Sitophilus granarius): 495.0 | LC95 (concentration x time product) (Sitophilus oryzae): 220.0 | LD50 (concentration x time product) (Tenebroides mauritanicus): 400.00 | LC99 (concentration x time product) (Tribolium confusum): 025.0 | LC90 (concentration x time product) (Tribolium castaneum): 600.0

C=CC#N [Acrylonitrile, acrylonitrile]
LC95 (concentration x time product) [1]: 8.4 | LC95 (concentration x time product) (Rhyzopertha dominica): 8.4 | LC99 (concentration x time product) (Sitophilus granarius): 11.0 | LC95 (concentration x time product) (Sitophilus oryzae): 10.8 | LC99 (concentration x time product) (Tenebroides mauritanicus): 40.0 | LC99 (concentration x time product) (Tribolium confusum): 19.5 | LC95 (concentration x time product) (Trogoderma granarium): 48.0

P [Phosphine, phosphine]
LD99 (concentration x time product) [1]: 0.96 | LD99 (concentration x time product) (Rhyzopertha dominica): 0.6 | LC99 (concentration x time product) (Sitophilus granarius): 1.01 | LD99 (concentration x time product) (Sitophilus oryzae): 0.36 | LC99 (concentration x time product) (Tenebroides mauritanicus): ~5.0 | LC99 (concentration x time product) (Tribolium confusum): 0.48 | LC90 (concentration x time product) (Tribolium castaneum): 11.5 | 100% mort. (concentration x time product) (Trogoderma granarium): 331.0

O=C=S [carbonyl sulphide]
% Germination, final count (10 days) [3]: 96% and 93% and 92% | % Germination, first count (4 days) [3]: 93% and 91% and 89% | effect on seed germination or vigour [3]: no effect on seed germination or vigour was detected | recovery of the calculated applied dose [4]: 98.4 per cent | discolouration of wheat by mould (mould): no discolouration occurred | Number of insects emerging from culture (S. oryzae [5]): 2 | Minimum effective tested dose (L. destructor): 120 | Corrected mortality (L. destructor; mite, inhaled, 6 h): 100% | Minimum effective tested dose [6]: 22.5 | psocids dead after exposure [6]: all 200 of the psocids were dead | Corrected mortality (B. tyroni [7]; 6 h): 100% | Corrected mortality (B. tyroni [7]; 24 h): 100% | No. emerging (R. dominica): 2 | control of all immature stages of R. dominica, on average (R. dominica; rhyzopertha dominica, 24 h): 93.4 per cent | No. emerged (S. oryzae [8]): 2 | concentration as per cent of the calculated initial concentration ([9]; 2 min): 62 per cent | concentration as per cent of the calculated initial concentration ([9]; 5 h): 18 per cent | concentration as per cent of the calculated initial concentration ([9]; 20 h): 5.9 per cent | solubility in water [2]: 1.4 grams per litre | time to death (Mice; 1200 ppm): 35 min | time to death (Mice; 2900 ppm): 11/2 | time to death (Mice; 8900 ppm): 3/4 | concentration in air above which mice die quickly (Mice; mouse, in vivo): more than 0.3 per cent | effects after exposure (Mice; mouse, in vivo): no perceptible effects | concentration in air above which rabbits die quickly (Rabbits): more than 0.3 per cent | effects after exposure (Rabbits): some ill effects | resistance compared with warm-blooded animals (Cold blooded animals): more resistance | mortality at 120 mg h/L (B. tyroni [10]; 6 h): 12.6% | mortality at 150 mg h/L (B. tyroni [10]; 6 h): 13.5% | mortality at 210 mg h/L (B. tyroni [10]; 6 h): 100% | mortality at 300 mg h/L (B. tyroni [10]; 6 h): 91.7% | mortality at 360 mg h/L (B. tyroni [10]; 6 h): 100% | mortality at 480 mg h/L (B. tyroni [10]; 6 h): 99.2% | mortality at 600 mg h/L (B. tyroni [10]; 6 h): 100% | mortality at 720 mg h/L (B. tyroni [10]; 6 h): 99.7% | mortality at 870 mg h/L (B. tyroni [10]; 6 h): 93.3% | mortality at 120 mg h/L (B. tyroni [10]; 24 h): 37.1% | mortality at 180 mg h/L (B. tyroni [10]; 24 h): 4.9% | mortality at 240 mg h/L (B. tyroni [10]; 24 h): 19.5% | mortality at 366 mg h/L (B. tyroni [10]; 24 h): 53.3% | mortality at 420 mg h/L (B. tyroni [10]; 24 h): 88.8% | mortality at 480 mg h/L (B. tyroni [10]; 24 h): 98.3% | mortality at 540 mg h/L (B. tyroni [10]; 24 h): 98.3% | mortality at 600 mg h/L (B. tyroni [10]; 24 h): 100% | mortality at 192 mg h/L [11]: 0% | mortality at 600 mg h/L [11]: 100%

C1CO1 [Ethylene oxide, ethylene oxide]
LC95 (concentration x time product) [1]: 60.0 | LC95 (concentration x time product) (Rhyzopertha dominica): 69.6 | LC99 (concentration x time product) (Sitophilus granarius): 36.0 | LC95 (concentration x time product) (Sitophilus oryzae): 62.0 | LC99 (concentration x time product) (Tenebroides mauritanicus): 175.0 | LC99 (concentration x time product) (Tribolium confusum): 127.5 | LD99 (concentration x time product) (Tribolium castaneum): 135.0 | LC95 (concentration x time product) (Trogoderma granarium): 176.0
